Each structure is given as a SMILES string.

In assay [1] the test system is Schistosoma mansoni. The assay is described as follows: Antischistosomal activity against Schistosoma mansoni isolated from infected Syrian golden hamsters assessed as worm mortality at 100 uM treated for overnight followed by drug washout measured on day 5 relative to control. In kind it is functional.
In assay [2] the test system is Schistosoma mansoni. The assay is described as follows: Antischistosomal activity against Schistosoma mansoni isolated from infected Syrian golden hamsters assessed as worm mortality at 75 uM treated for overnight followed by drug washout measured on day 5 relative to control. Type of assay: functional.
For assay [3], the system named is Schistosoma mansoni. Briefly: Antischistosomal activity against Schistosoma mansoni isolated from infected Syrian golden hamsters assessed as worm mortality at 50 uM treated for overnight followed by drug washout measured on day 5 relative to control. In kind it is functional.
The subject of assay [4] is Schistosoma mansoni. Briefly: Antischistosomal activity against Schistosoma mansoni isolated from infected Syrian golden hamsters assessed as worm mortality at 25 uM treated for overnight followed by drug washout measured on day 5 relative to control. In kind it is functional.
Assay [5] concerns Schistosoma mansoni. The assay is described as follows: Antischistosomal activity against Schistosoma mansoni isolated from infected Syrian golden hamsters assessed as worm mortality at 12.5 uM treated for overnight followed by drug washout measured on day 5 relative to control. In kind it is functional.
Assay [6] has as its system Schistosoma mansoni. Briefly: Antischistosomal activity against Schistosoma mansoni isolated from infected Syrian golden hamsters assessed as worm mortality at 5 uM treated for overnight followed by drug washout measured on day 5. Type of assay: functional.
The test system of assay [7] is Schistosoma mansoni. The assay is described as follows: Antischistosomal activity against Schistosoma mansoni isolated from infected Syrian golden hamsters assessed as worm mortality treated for overnight followed by drug washout measured on day 5. As to conditions: 120 h. In kind it is functional, organism-based.

One may read the EC50 as the concentration giving half of the maximal effect. As to `CCCCCCCCCCCCCCCCCCOCCOP(=O)(O)CO[C@H](CO)Cn1cnc2c(N)nc(N)nc21`, the Activity in the assay on Schistosoma mansoni [1] was determined as 40%; in the assay on Schistosoma mansoni [2] it was 40%; in the assay on Schistosoma mansoni [3], 33%; in the assay on Schistosoma mansoni [4] it was 14%; with Schistosoma mansoni [5], 8%; in the assay with Schistosoma mansoni [6], 7%. Besides, the 50% effective concentration (EC50) in the assay on Schistosoma mansoni [7] was more than 100 µM.

For `CCCCCCCCCCCCCCCCOCCCOP1(=O)CO[C@@H](Cn2cnc3c(N)ncnc32)CO1` (stereo partly specified), the Activity is recorded as 93.3% with Schistosoma mansoni [1]; 84.6% in the assay on Schistosoma mansoni [2]; 78.6% with Schistosoma mansoni [3]; 69.2% in the assay with Schistosoma mansoni [4]; 53.8% in the assay on Schistosoma mansoni [5]; 50% in the assay with Schistosoma mansoni [6]. Further, the concentration giving a half-maximal response (EC50) with Schistosoma mansoni [7] came to 5 µM.

On to `CCCCCCCCCCCCCCCCCCOCCOP(=O)(O)CO[C@H](CO)Cn1cnc2c(=O)[nH]c(N)nc21`, for which the Activity in the assay with Schistosoma mansoni [1] is given as 33%; in the assay with Schistosoma mansoni [2], 36%; in the assay on Schistosoma mansoni [3] it was 20%; with Schistosoma mansoni [4] it was 15%; in the assay on Schistosoma mansoni [5] it was 7%; with Schistosoma mansoni [6] it was 13%. The EC50 in the assay with Schistosoma mansoni [7] is more than 100 µM.

Take `CCCCCCCCCCCCCCCCOCCCOP1(=O)CO[C@@H](Cn2ccc(N)nc2=O)CO1` (stereo partly specified): the Activity in the assay on Schistosoma mansoni [1] came out at 100%; in the assay with Schistosoma mansoni [2] it was 64%; in the assay with Schistosoma mansoni [3], 67%; in the assay with Schistosoma mansoni [4] it was 36%; in the assay on Schistosoma mansoni [5], 33%; with Schistosoma mansoni [6] it was 13%. Further, in the assay on Schistosoma mansoni [7], the EC50 stood at 28 µM.

In the case of `Nc1ncnc2c1ncn2C[C@@H](CO)OCP(=O)(O)O`, the Activity turned out to be 13% in the assay on Schistosoma mansoni [1]; 12.5% in the assay with Schistosoma mansoni [2]; 7% in the assay on Schistosoma mansoni [3]; 7% in the assay with Schistosoma mansoni [4]; 6.25% in the assay on Schistosoma mansoni [5]; 6.7% with Schistosoma mansoni [6]. The EC50 in the assay with Schistosoma mansoni [7] is more than 100 µM.

On to `CCCCCCCCCCCCCCCCOCCCOP(=O)(O)CO[C@H](CO)Cn1cnc2c(N)ncnc21`, for which the Activity with Schistosoma mansoni [1] is reported as 30.8%; in the assay with Schistosoma mansoni [2], 28.6%; with Schistosoma mansoni [3], 32.3%; with Schistosoma mansoni [4], 18.8%; with Schistosoma mansoni [5], 12.5%; with Schistosoma mansoni [6], 6.25%. The EC50 in the assay with Schistosoma mansoni [7] is more than 100 µM.

On to `CCCCCCCCCCCCCCCCCCOCCOP(=O)(O)CO[C@H](CO)Cn1cnc2c(N)ncnc21`, for which the Activity in the assay with Schistosoma mansoni [1] was found to be 47%; in the assay on Schistosoma mansoni [2], 33%; with Schistosoma mansoni [3], 40%; with Schistosoma mansoni [4], 25%; in the assay on Schistosoma mansoni [5], 12.5%; in the assay with Schistosoma mansoni [6], 12.5%. The EC50 in the assay with Schistosoma mansoni [7] is more than 100 µM.

As to `O=C(C1CCCCC1)N1CC(=O)N2CCc3ccccc3C2C1` (stereo unspecified) [PRAZIQUANTEL], the Activity in the assay on Schistosoma mansoni [1], in the assay on Schistosoma mansoni [2], with Schistosoma mansoni [3], in the assay with Schistosoma mansoni [4], in the assay on Schistosoma mansoni [5] and in the assay on Schistosoma mansoni [6] was 100% throughout. Also, in the assay with Schistosoma mansoni [7], the 50% effective concentration (EC50) came to 0.22 µM.
